Data on one compound can be found in patent US20110318344A1, “Tumor Treatment” (MEDIZINISCHE UNIVERSITAET WIEN, priority 2009, published 2011).

In one assay the test system is SK-OV-3 cells. The assay can be described thus: Proliferation assay (cell number by CASY cell counter, doubling time). The format is cell-based, human. Here is the method:
The SK-OV-3 cell line was cultured equally the MDAH-2774 cell line except for the use of McCoy's medium. For applying the Tet-Off inducible system, founder cell lines were generated by transfecting SK-OV-3 cells with the pTet-Off vector (neo^r) encoding a tetracyclin repressible transactivator (tTA). Resistant colonies were selected with 200 μg/ml G418 and characterized by transient transfection with the luciferase reporter plasmid (pTRE-Luc), whose promoter is induced by the transactivator. Luciferase activity in the presence and absence of tetracycline was measured to identify cells with maximal promoter inducibility. […] These two founder cell lines were used to establish cells inducible for HCRP1-specific shRNA constructs (Open Biosystems; #V2HS 21202, #V2HS 21203), which were cloned into the SIN-TREmiR30-PIG vector (purr) downstream of the tetracycline inducible promoter. Thus, presence of tetracycline in the culture medium would suppress shRNA expression, while its withdrawal would induce the knock-down of HCRP1. […]
To maintain the logarithmic phase, cells were split at intervals of 48 hours, along with the determination of the cell number by a CASY cell counter (Innovatis AG, Bielefeld, Germany). […] From the obtained data doubling times (dt) were calculated and depicted as dt-1.

Another assay has as its system MDAH-2774 cells. Described as above. The conditions noted are these: MDAH-2774, HCRP1-silenced vs controls (FIG. 7B). The assay is classed as cell-based, human. Here is the method: To maintain the logarithmic phase, cells were split at intervals of 48 hours, along with the determination of the cell number by a CASY cell counter (Innovatis AG, Bielefeld, Germany). This procedure was performed in triplicates over a time-span of 6 days and confirmed by a replication of the whole experiment. From the obtained data doubling times (dt) were calculated and depicted as dt-1.

SMILES strings stand for the structures. “Also recorded” adds a separate entry of the source.

On to `CS(=O)(=O)CCNCc1ccc(-c2ccc3ncnc(Nc4ccc(OCc5cccc(F)c5)c(Cl)c4)c3c2)o1` [Lapatinib], for which the “dependence of the anti-proliferative effect on HCRP1 expression” value in the assay with SK-OV-3 cells (SKOV-3, HCRP1-silenced vs controls (FIG. 7A)) is “independent of HCRP1 expression; also recorded: unaffected by HCRP1 expression”; with MDAH-2774 cells it was “independent of HCRP1 expression”. This compound also registered a doubling time in the assay with SK-OV-3 cells (SKOV-3 cells, 4 μM Lapatinib, 6 days, HCRP1 status not specified) of 37.3 h.
